Results from PubChem BioAssay AID248 (DTP/NCI, 2004).
Where “and” joins values, the source holds several entries; their conditions need not be identical. Identical values can stand only once. Inconclusive results and toxic doses are left out. Rule as the data show it: active = T/C of 150% or more; inactive = T/C below 125%.

System: L1210 leukemia ip in BDF1 mice, survival T/C
Assay: NCI In Vivo Anticancer Drug Screen. Data for tumor model L1210 Leukemia (intraperitoneal) in B6D2F1 (BDF1) mice
Settings: endpoint: mean survival time, higher = longer survival
Summary of the method: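 Survival endpoint. Drug-treated group vs vehicle group, expressed as T divided by C. Tumor passaged by transplantation.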

[1] = dose: 25.0 mg/kg/injection, schedule: Q01DX009 (ip), vehicle: Klucel (hydroxypropylcellulose) (HPC)
[2] = dose: 25.0 mg/kg/injection, schedule: Q04DX003 (ip), vehicle: Klucel (hydroxypropylcellulose) (HPC)
[3] = dose: 50.0 mg/kg/injection, schedule: Q01DX009 (ip), vehicle: Klucel (hydroxypropylcellulose) (HPC)
[4] = dose: 50.0 mg/kg/injection, schedule: Q04DX003 (ip), vehicle: Klucel (hydroxypropylcellulose) (HPC)
[5] = dose: 100.0 mg/kg/injection, schedule: Q01DX009 (ip), vehicle: Klucel (hydroxypropylcellulose) (HPC)
[6] = dose: 100.0 mg/kg/injection, schedule: Q04DX003 (ip), vehicle: Klucel (hydroxypropylcellulose) (HPC)
[7] = dose: 200.0 mg/kg/injection, schedule: Q04DX003 (ip), vehicle: Klucel (hydroxypropylcellulose) (HPC)
[8] = dose: 100.0 mg/kg/injection, schedule: Q01DX001 (ip), vehicle: saline
[9] = dose: 100.0 mg/kg/injection, schedule: Q01DX009 (ip), vehicle: saline
[10] = dose: 100.0 mg/kg/injection, schedule: Q04DX003 (ip), vehicle: saline
[11] = dose: 200.0 mg/kg/injection, schedule: Q01DX001 (ip), vehicle: saline
[12] = dose: 200.0 mg/kg/injection, schedule: Q01DX009 (ip), vehicle: saline
[13] = dose: 200.0 mg/kg/injection, schedule: Q04DX003 (ip), vehicle: saline
[14] = dose: 400.0 mg/kg/injection, schedule: Q01DX001 (ip), vehicle: saline
[15] = dose: 400.0 mg/kg/injection, schedule: Q01DX009 (ip), vehicle: saline
[16] = dose: 400.0 mg/kg/injection, schedule: Q04DX003 (ip), vehicle: saline
[17] = dose: 12.5 mg/kg/injection, schedule: Q04DX003 (ip), vehicle: Klucel (hydroxypropylcellulose) (HPC)

Measured: T/C

NC1CCC2CCCCC2C1 (stereo not drawn)
inactive: [1] 101 % of control | [2] 95 % of control | [3] 93 % of control | [4] 100 % of control | [5] 98 % of control | [6] 94 % of control

CCCCCCCCCCCCNC(=O)Nc1cccc(C)c1C
inactive: [5] 89 % of control | [6] 98 % of control | dose: 200.0 mg/kg/injection, schedule: Q01DX009 (ip), vehicle: Klucel (hydroxypropylcellulose) (HPC) 100 % of control | [7] 95 % of control | dose: 400.0 mg/kg/injection, schedule: Q01DX009 (ip), vehicle: Klucel (hydroxypropylcellulose) (HPC) 89 % of control | dose: 400.0 mg/kg/injection, schedule: Q04DX003 (ip), vehicle: Klucel (hydroxypropylcellulose) (HPC) 95 % of control

CCSc1nc2c([nH]1)c(=S)n(C)c(=O)n2C
inactive: [8] 96 % of control | [9] 100 % of control | [10] 109 % of control | [11] 112 % of control | [12] 89 % of control | [13] 98 % of control | [14] 95 % of control | [15] 103 % of control | [16] 98 % of control

O=C(CBr)Nc1ccc(Cl)cc1
inactive: dose: 2.0 mg/kg/injection, schedule: Q04DX003 (ip), vehicle: Klucel (hydroxypropylcellulose) (HPC) 96 % of control | dose: 3.12 mg/kg/injection, schedule: Q01DX009 (ip), vehicle: Klucel (hydroxypropylcellulose) (HPC) 92 % of control | dose: 4.0 mg/kg/injection, schedule: Q04DX003 (ip), vehicle: Klucel (hydroxypropylcellulose) (HPC) 104 % of control | dose: 6.25 mg/kg/injection, schedule: Q01DX009 (ip), vehicle: Klucel (hydroxypropylcellulose) (HPC) 102 % of control | dose: 9.0 mg/kg/injection, schedule: Q04DX003 (ip), vehicle: Klucel (hydroxypropylcellulose) (HPC) 100 % of control | dose: 12.5 mg/kg/injection, schedule: Q01DX009 (ip), vehicle: Klucel (hydroxypropylcellulose) (HPC) 89 % of control | dose: 19.0 mg/kg/injection, schedule: Q04DX003 (ip), vehicle: Klucel (hydroxypropylcellulose) (HPC) 104 % of control and 91 % of control | [1] 89 % of control | dose: 50.0 mg/kg/injection, schedule: Q01DX001 (ip), vehicle: other 95 % of control | dose: 100.0 mg/kg/injection, schedule: Q01DX001 (ip), vehicle: other 101 % of control

CC([NH-])C[NH-].[Cl][Pd][Cl] (stereo not drawn)
inactive: dose: 6.25 mg/kg/injection, schedule: Q04DX002 (ip), vehicle: Klucel (hydroxypropylcellulose) (HPC) 93 % of control | dose: 12.5 mg/kg/injection, schedule: Q04DX002 (ip), vehicle: Klucel (hydroxypropylcellulose) (HPC) 102 % of control and 93 % of control | [17] 96 % of control | dose: 25.0 mg/kg/injection, schedule: Q04DX002 (ip), vehicle: Klucel (hydroxypropylcellulose) (HPC) 90 % of control | [2] 94 % of control | dose: 50.0 mg/kg/injection, schedule: Q04DX002 (ip), vehicle: Klucel (hydroxypropylcellulose) (HPC) 90 % of control | [4] 91 % of control

O=C1C=C(O)c2cc(Br)ccc2C1=O.[Ag]
inactive: dose: 100.0 mg/kg/injection, schedule: Q04DX002 (ip), vehicle: saline 105 % of control

C/C=C/C1OCC(CC)([N+](=O)[O-])CO1 (stereo not drawn)
inactive: dose: 100.0 mg/kg/injection, schedule: Q04DX003 (ip), vehicle: saline with Tween-80 101 % of control | dose: 200.0 mg/kg/injection, schedule: Q04DX003 (ip), vehicle: saline with Tween-80 96 % of control | dose: 400.0 mg/kg/injection, schedule: Q04DX003 (ip), vehicle: saline with Tween-80 98 % of control

O=C1C2CC(CN3CCCCC23)C2CCCCN12 (stereo not drawn)
inactive: dose: 75.0 mg/kg/injection, schedule: Q01DX001 (ip), vehicle: saline 94 % of control | dose: 150.0 mg/kg/injection, schedule: Q01DX001 (ip), vehicle: saline 103 % of control | dose: 300.0 mg/kg/injection, schedule: Q01DX001 (ip), vehicle: saline 101 % of control

COc1cc(N(CCCl)CCCl)ccc1C=Nc1cc(Cl)ccc1-n1ccnc1
inactive: dose: 100.0 mg/kg/injection, schedule: Q04DX002 (ip), vehicle: Klucel (hydroxypropylcellulose) (HPC) 95 % of control | dose: 200.0 mg/kg/injection, schedule: Q04DX002 (ip), vehicle: Klucel (hydroxypropylcellulose) (HPC) 95 % of control | dose: 400.0 mg/kg/injection, schedule: Q04DX002 (ip), vehicle: Klucel (hydroxypropylcellulose) (HPC) 87 % of control

COC(=O)c1cccn1C(=O)c1ccccc1[N+](=O)[O-]
inactive: dose: 50.0 mg/kg/injection, schedule: Q04DX002 (ip), vehicle: other 105 % of control | dose: 100.0 mg/kg/injection, schedule: Q04DX002 (ip), vehicle: other 97 % of control | dose: 200.0 mg/kg/injection, schedule: Q04DX002 (ip), vehicle: other 94 % of control

CSc1nc(C)c(C)c(=O)[nH]1
inactive: [8] 104 % of control | [11] 116 % of control | [14] 124 % of control

CN(C)Cc1c[nH]c2c1S/C(=C/c1ccccc1)C2=O
inactive: dose: 100.0 mg/kg/injection, schedule: Q01DX001 (ip), vehicle: Klucel (hydroxypropylcellulose) (HPC) 105 % of control | dose: 200.0 mg/kg/injection, schedule: Q01DX001 (ip), vehicle: Klucel (hydroxypropylcellulose) (HPC) 96 % of control | dose: 400.0 mg/kg/injection, schedule: Q01DX001 (ip), vehicle: Klucel (hydroxypropylcellulose) (HPC) 100 % of control

CSc1cc(=O)n(C2OC(COC(C)=O)C(OC(C)=O)C2OC(C)=O)c(=O)[nH]1 (stereo not drawn)
inactive: dose: 100.0 mg/kg/injection, schedule: Q01DX005 (ip), vehicle: saline 95 % of control | dose: 200.0 mg/kg/injection, schedule: Q01DX005 (ip), vehicle: saline 97 % of control

O=C(OCCN1CCCCC1)C(O)C1CCCCC1 (stereo not drawn)
inactive: [10] 101 % of control | [13] 103 % of control

CCc1cc(C(C)=O)c(CC)s1
inactive: dose: 100.0 mg/kg/injection, schedule: Q01DX009 (sc), vehicle: olive oil, sesame oil, peanut oil 94 % of control | dose: 100.0 mg/kg/injection, schedule: Q04DX003 (sc), vehicle: olive oil, sesame oil, peanut oil 104 % of control | dose: 200.0 mg/kg/injection, schedule: Q01DX009 (sc), vehicle: olive oil, sesame oil, peanut oil 97 % of control | dose: 200.0 mg/kg/injection, schedule: Q04DX003 (sc), vehicle: olive oil, sesame oil, peanut oil 100 % of control | dose: 400.0 mg/kg/injection, schedule: Q01DX009 (sc), vehicle: olive oil, sesame oil, peanut oil 104 % of control | dose: 400.0 mg/kg/injection, schedule: Q04DX003 (sc), vehicle: olive oil, sesame oil, peanut oil 109 % of control

CC(=O)OC1CCC2(C)C(C1)CC(OC(C)=O)C1C2CCC2(C)C(C(C)CCC(=O)O)CCC12 (stereo not drawn)
inactive: dose: 100.0 mg/kg/injection, schedule: Q01DX001 (ip), vehicle: saline with Tween-80 92 % of control | dose: 200.0 mg/kg/injection, schedule: Q01DX001 (ip), vehicle: saline with Tween-80 97 % of control | dose: 400.0 mg/kg/injection, schedule: Q01DX001 (ip), vehicle: saline with Tween-80 92 % of control

N#Cc1nc2ccc(Cl)cc2nc1C#N
inactive: [1] 104 % of control | [3] 105 % of control | [5] 95 % of control and 102 % of control

O=C1COC(=O)N1
inactive: [9] 100 % of control | [12] 100 % of control | [15] 100 % of control

O=[N+]([O-])c1cc(Br)c(N=Nc2ccc(O)cc2)c(Br)c1
inactive: dose: 50.0 mg/kg/injection, schedule: Q01DX001 (ip), vehicle: saline 92 % of control | [8] 114 % of control | [11] 97 % of control | [14] 92 % of control

Cc1cc(C)c(N)c(C)n1
inactive: [17] 95 % of control | [2] 97 % of control | [4] 93 % of control

CC(=O)c1ccc(N2CCN(c3ccc(C(C)=O)cc3)CC2)cc1
inactive: [10] 93 % of control | [13] 95 % of control | [16] 98 % of control

CCOC(=O)Oc1c(OC)cc(C(=O)O[C@@H]2C[C@@H]3CN4CCc5c([nH]c6cc(OC)ccc56)[C@H]4C[C@@H]3[C@H](C(=O)OC)[C@H]2OC)cc1OC
inactive: [2] 101 % of control | [4] 106 % of control | [6] 95 % of control | [7] 98 % of control

O=C(NC1CCCCC1)NS(=O)(=O)c1ccc2c(c1)CCC2
inactive: [8] 100 % of control | [11] 102 % of control | [14] 96 % of control
